Source: PMC5120310, “In Silico Exploration for Novel Type-I Inhibitors of Tie-2/TEK: The Performance of Different Selection Strategy in Selecting Virtual Screening Candidates” (Scientific Reports, 2016)
Like-named read-outs stand apart in the source and are kept apart here.

Molecular target: T1, recombinant human Tie-2 protein (Homo sapiens, UniProt Q02763)
T1 construct: purchased Thermo Fisher Scientific Inc. PV3628
Test: Z′-Lyte FRET enzymatic activity assay of Tie-2 kinase
Type: biochemical
Settings: for inhibition at 5 µg/mL: 5 μg/mL, n ≥ 2, read-out: Kinase Inhibition (%) at 5 μg/mL (± SD)

[1] = 10 μg/mL preliminary screening, Table S1
[2] = Z′-Lyte assay, 100 μM ATP, n ≥ 2 per concentration, read-out: IC50 (half-maximal inhibitory concentration), Tie-2 kinase

T1 sequence (Q02763 23-1124): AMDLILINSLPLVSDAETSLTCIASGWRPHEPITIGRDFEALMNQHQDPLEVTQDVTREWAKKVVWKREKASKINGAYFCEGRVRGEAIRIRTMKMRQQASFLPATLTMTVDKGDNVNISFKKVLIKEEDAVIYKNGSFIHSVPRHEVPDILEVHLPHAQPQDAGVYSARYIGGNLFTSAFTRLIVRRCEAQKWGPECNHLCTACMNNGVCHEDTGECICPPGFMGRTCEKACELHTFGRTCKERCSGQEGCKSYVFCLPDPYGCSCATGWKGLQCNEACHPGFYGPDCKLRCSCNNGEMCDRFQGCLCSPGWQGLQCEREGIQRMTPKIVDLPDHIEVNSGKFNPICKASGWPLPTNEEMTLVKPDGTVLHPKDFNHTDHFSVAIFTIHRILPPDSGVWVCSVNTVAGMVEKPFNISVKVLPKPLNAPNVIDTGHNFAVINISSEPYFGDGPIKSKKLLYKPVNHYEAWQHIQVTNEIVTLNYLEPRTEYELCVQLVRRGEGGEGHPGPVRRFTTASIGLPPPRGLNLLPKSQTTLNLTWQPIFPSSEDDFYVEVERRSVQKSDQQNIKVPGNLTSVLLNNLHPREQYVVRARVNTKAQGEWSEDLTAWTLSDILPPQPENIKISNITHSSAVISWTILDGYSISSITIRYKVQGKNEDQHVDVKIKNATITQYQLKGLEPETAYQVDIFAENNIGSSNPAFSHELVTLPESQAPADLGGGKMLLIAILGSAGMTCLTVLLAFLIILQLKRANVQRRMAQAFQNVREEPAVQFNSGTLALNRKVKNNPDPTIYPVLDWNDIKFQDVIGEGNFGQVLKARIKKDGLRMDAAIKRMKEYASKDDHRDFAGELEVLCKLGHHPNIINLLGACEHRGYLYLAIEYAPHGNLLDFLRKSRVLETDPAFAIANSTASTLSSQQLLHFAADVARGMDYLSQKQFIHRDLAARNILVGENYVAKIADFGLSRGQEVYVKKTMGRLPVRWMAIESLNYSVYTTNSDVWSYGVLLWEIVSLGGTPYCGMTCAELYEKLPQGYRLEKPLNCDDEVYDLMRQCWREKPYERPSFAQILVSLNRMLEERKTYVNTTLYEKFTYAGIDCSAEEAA
Procedure: In order to assess the biological inhibitory activity of the VS compounds, Z’-Lyte enzymatic activity assay based on FRET (Fluorescence Resonance Energy Transfer) technology was developed as described above. […] At first, all the compounds obtained from both filtering strategies were preliminary screened for their ability to inhibit Tie-2 kinase activity at the concentration of 10 μg/mL.
The Tie-2 kinase inhibitor (CAS#: 948557-43-5, purity ≥ 97%) was purchased from Merck Calbiochem (Darmstadt, Germany) and used as a positive control inhibitor in bioassays[40]. […] All the purchased screening compounds were firstly dissolved in dimethyl sulfoxide (DMSO) at a stock concentration of 5 mg/ml. The final working concentration of DMSO is less than 1%.
Compounds were tested for their ability to inhibit Tie-2 kinase activity using Z′-Lyte® kinase assay kit (ser/thr 5 peptide) with NUNC 384-well plate. In the first step, the test compounds and ATP solution were firstly prepared at 4 × desired concentration. The mixture of recombinant human Tie-2 protein and non-phosphorylated peptide at 2 × desired concentration was prepared in kinase reaction buffer A consisting of 50 mM HEPES (pH 7.5), 0.01% BRIJ-35, 10 mM MgCl2, 4 mM MnCl2, 1 mM EGTA and 2 mM DTT. Reactions were then carried out in a solution containing 2.5 μL test compounds, 5 μL Tie-2/Tyr 05 peptide mixture (10 ng Tie-2 and 2 μM Tyr 05 peptide) and 2.5 μL ATP (100 μM). Then, the assay plate was shaken for 30 seconds on a plate shaker, and incubated for 1 hour at room temperature (20~25 °C). After sufficient kinase reactions, 5 μL development reagent A was added to each well, and the plate was incubated for another hour. Finally, 5 μL stop reagent was added to terminate the reactions, and the coumarin and fluorescein emission signals (excitation: 400 nm; emission: 445 and 520 nm, respectively) were measured on a fluorescence plate reader (BioTek Synergy 4).

Row | Inhibition (%) @10 μg/ml [1] [%] | Structure (SMILES) | further results
1 | 20.01±0.68 | Cl.O=C(O)c1ccc(Cl)c(-c2ccc(CNCC(O)c3ccccc3)o2)c1 (stereo not shown) [TP-C1-55] | 
2 | 67.14±5.68 | Cc1ccccc1C(=O)NC(=S)Nc1ccc(NC(=O)c2cc3ccccc3o2)cc1 [TP-C2-47] | 
3 | 3.87±1.8 | CCOc1ccc(NC(=O)C(C)Sc2nc3ccccc3c(=O)n2-c2cccc(C)c2)cc1 (racemic) [TP-C1-36] | 
4 | 50.65±0.04 | CC(=O)c1cccc(NC(=O)CSc2nnc(-c3ccccc3)c(=O)[nH]2)c1 [TP-C2-58] | 
5 | 74.86±1.02 | Cc1ccc2c(c1)C(Cc1nc3ccccc3c(=O)n1CCc1ccccc1)C(=O)N2 (stereo not shown) [TP-C2-56] | 
6 | -0.66±5.93 | CCc1ccc2oc(-c3ccc(NC(=S)NC(=O)c4cc5ccccc5o4)cc3)nc2c1 [TP-C1-15] | 
7 | 46.26±3.21 | O=C(NC(=S)Nc1ccc(-c2nc3ccccc3o2)c(O)c1)c1cccc(Br)c1 [TP-C2-10] | 
8 | 28.98±1.34 | Cc1ccc(-c2cc(C(=O)OCC(=O)c3ccccc3)c3cccc(C)c3n2)cc1 [TP-C1-13] | Tie-2 inhibitory activity in words (active / inactive) (VS candidates of Strategy 1, preliminary screening at 10 μg/mL): inactive
9 | 37.64±1.82 | CCOC(=O)c1ccc(NC(=O)CN2C(=O)c3ccccc3C2=O)cc1 [TP-C1-3] | 
10 | 9.84±11.04 | O=C(NCCNC(=O)c1cc2ccccc2cc1O)c1cc2ccccc2cc1O [TP-C1-7] | 
11 | 51.93±0.22 | COc1ccc(-c2cc3ccccc3oc2=O)cc1NC(=O)c1cccnc1 [TP-C2-31] | 
12 | 44.25±1.05 | Cc1cccc(-n2c(CCN3C(=O)c4ccccc4C3=O)nc3ccccc3c2=O)c1 [TP-C1-10] | 

Second part, the compound before the results:

Row | Structure (SMILES) | Inhibition (%) @10 μg/ml [1] [%] | further results
13 | COc1ccc(-c2nnc(SC(CC(=O)NCc3ccco3)c3ccc(C)cc3)[nH]2)cc1 (stereo not shown) [TP-C2-45] | 65.92±4.36 | 
14 | c1ccc(-c2cc(-c3ccc4c(c3)OCCO4)c(-c3ccccc3)nn2)cc1 [TP-C2-48] | 43.96±2.34 | 
15 | c1ccc(-c2nnc(CSc3nnc(-c4ccncc4)[nH]3)o2)cc1 [TP-C1-53] | 28.39±0.73 | 
16 | CCOc1cc(-c2nc3sc4c(c3c(=O)[nH]2)CCCC4)ccc1OCc1ccccc1F [TP-C1-14] | 10.67±4.7 | 
17 | CCOc1ccc(CN(CCc2ccc3c(c2)OCO3)Cc2ccc(C)cc2)cc1 [TP-C1-9] | 17.49±0.65 | 
18 | COc1ccc(C(=O)NC(=S)Nc2ccc(NC(=O)c3cccc(C)c3)cc2)cc1OC [TP-C2-9] |  | inhibition at 10 µg/mL [1]: 81.6 ± 2.85%; IC50 [2]: 1.86 ± 0.18 µM; IC50 (in the dose-response figure, read-out: IC50 (dose-dependent inhibitory effect), Tie-2 kinase (converted)): 1.87 µM
19 | CCCOc1ccc(N2C(=O)CC(N(CCc3ccc(OC)cc3)C(=O)c3cccc(F)c3)C2=O)cc1 (stereo not shown) [TP-C2-5] | 83.65±2.57 | IC50 [2]: 13.8 ± 1.02 µM
20 | O=C(NCCOc1ccccc1)c1n[nH]c(=O)c2ccccc12 [TP-C2-44] | 52.94±2.54 | 
21 | CN1C(=O)c2ccc(C(=O)NCc3ccccn3)cc2C1=O [TP-C2-51] | 77.63±0.16 | 
22 | COc1ccc(Cl)cc1C(=O)NC(=S)Nc1ccc(NC(=O)c2ccccc2)c(C)c1 [TP-C3-27] |  | inhibition at 5 µg/mL: 47.9 ± 0.05%; IC50 [2]: 19.8 µM
23 | O=C(CN(Cc1ccc(F)cc1)S(=O)(=O)c1ccc(Cl)cc1)NCc1ccccn1 [TP-C1-27] | 4.93±5.56 | 
24 | CC(=O)c1c(C)cc(C)c(CSc2ccccn2)c1C [TP-C2-22] | 90.2±6.92 | IC50 [2]: 8.44 ± 0.93 µM
25 | COc1cccc(C2C(C(=O)c3ccc(C)o3)=C(O)C(=O)N2CCN(C)C)c1 (stereo not shown) [TP-C1-25] | 3.13±1.45 | 
26 | Cc1cccc(C(=O)Nc2ccc(NC(=S)NC(=O)c3ccccc3)cc2)c1 [TP-C3-3] |  | inhibition at 5 µg/mL: 67.3 ± 0.78%; IC50 [2]: 2.82 µM
27 | O=C(OCc1ccccc1)c1cn(-c2ccccc2)nc1-c1ccncc1 [TP-C1-37] | 25.51±1.18 | IC50 [2]: 36.1 ± 1.33 µM
28 | CCOc1cc(C2C(C(=O)OCCc3ccccc3)=C(C)NC3=C2C(=O)CCC3)ccc1O (stereo not shown) [TP-C2-4] | 69.77±2.75 | 
29 | O=c1[nH]nc(CCc2n[nH]c(=O)c3ccccc23)c2ccccc12 [TP-C2-1] | 48.48±7.49 | 
